According to US6800285B2 (priority 2000, dated 2004):

Key:
[1] = tested on: SJL/J mice infected with Theiler's murine encephalomyelitis virus; experiment: Spinal cord demyelination quantitation (lesion load) in TMEV-infected mice; type: in vivo, mouse
Protocol: (§1) All mice used in the experiments were SJL/J mice (Jackson Laboratories, Bar Harbor, Me.). Six- to eight-week-old mice were intracerebrally injected with 2.0×10^6 pfu of Daniel's strain of Theiler's murine encephalomyelitis virus.
(§2) Areas of spinal cord demyelination (lesion load) and remyelination (73) were determined from multiple cross-sections of plastic-embedded spinal cords, using a camera lucida system and a computerized drawing tablet (39). Briefly, mice were sacrificed by overdose with sodium pentobarbital and perfused by intracardiac puncture with Trumps fixative, containing 4% paraformaldehyde and 1% glutaraldehyde. Spinal cords were removed, post-fixed in osmium textroxide, and sectioned into 1 mm blocks. Every third block (10-12 blocks per spinal cord; cervical to lumbar range) was embedded in Araldite plastic. The embedded tissues were cross-sectioned at 1 μm thickness, and the slides stained with 4% paraphenylenediamine to highlight the myelin sheaths.
Using a camera lucida attached to a Zeiss photomicroscope and a ZIDAS interactive digital analysis system, three parameters were measured from each slide: total white matter area, demyelinated lesion area, and remyelination area. Outline of these regions were traced and the areas calculated by the computerized digital analysis system. Demyelination was expressed as the total lesion area as a percentage of total white matter area. Remyelination was expressed as the total remyelination area as a percentage of the total demyelinated lesion area. The criterion for remyelination by oligodendrocytes was abnormally thin myelin sheaths. All remyelination data refers to oligodendrocyte-mediated remyelination. Occasionally, Schwann-cell mediated remyelination was observed, characterized by abnormally thick myelin sheaths and nuclei juxtaposed to the myelin sheath.
Virus was injected on Day 0.
Chronically infected mice (124-365 days post-infection) were treated subcutaneously for periods of 41-76 days. […] These mice were sacrificed after 65 days. […] The members of this group were sacrificed after 65-76 days. […] Sacrifice of these mice occurred after 41-65 days. The control group of mice received PBS. In all groups, spinal cord demyelination was measured after sacrifice.
Chronically infected mice (160-477 days post-infection) were treated by intraperitoneal injection with antibodies for periods of 36-76 days. One group of mice received Normal antibodies, administered in 10 injections of 0.05 mg each for a total of 0.5 mg over 42 days. […] PBS was administered to the control group of mice. Spinal cord white matter demyelinating pathology was measured post-sacrifice for all mice.
Each mouse received 5 weekly injections for total antibody doses of 0.5 or 1.5 mg (0.1-0.3 mg/injection). After sacrifice, spinal cord demyelination was measured.

[2] = tested on: SJL/J mice infected with Theiler's murine encephalomyelitis virus; experiment: Spinal cord remyelination quantitation in TMEV-infected mice; type: in vivo, mouse
Protocol: as §1
as §2, with “The embedded tissues were cross-sectioned at 1 μm thickness, and the slides stained with 4% paraphenylenediamine to highlight the myelin sheaths.” left out
Using a camera lucida attached to a Zeiss photomicroscope and a ZIDAS interactive digital analysis system, three parameters were measured from each slide: total white matter area, demyelinated lesion area, and remyelination area. Outline of these regions were traced and the areas calculated by the computerized digital analysis system. Demyelination was expressed as the total lesion area as a percentage of total white matter area. Remyelination was expressed as the total remyelination area as a percentage of the total demyelinated lesion area. […]

TMEV [3] = experiment: Serum anti-TMEV IgG titers after glatiramer acetate immunization; type: in vivo, Theiler's murine encephalomyelitis virus; settings: four weeks after immunization, vs control mice
Protocol: An indirect ELISA was performed in which serum or a purified antibody was applied to plates that were pre-coated with glatiramer acetate or other protein antigens. The antigen of interest was dissolved in 0.1 M carbonate buffer, pH 9.5, and applied at 1 μg per well in 96-well polystrene plates. Incubation was overnight at 4° C. Plates were then rinsed with PBST (phosphate buffered saline containing 0.05% Tween 20 detergent) and incubated for 1 hr in PBSM (phosphate buffered saline containing 5% defatted milk powder). Plates were rinsed with PBST, then incubated for 4 hr at room temperature with 50×PBS. Plates were rinsed with PBST, then incubated with biotinylated secondary antibodies that were raised in goat. The secondary antibodies, diluted in PBSM 1:50, were specific to mouse IgG or mouse IgM. Incubation was for 2 hr at room temperature. Plates were rinsed in PBST, then PBS. Streptavidin-alkaline phosphatase conjugate diluted in PBS was applied to the plates for 2 hr room temperature. Plates were rinsed with PBST, with a final rinse in water. The colored reaction product was produced by incubation with p-nitrophenyl phosphatase in 0.1 M carbonate buffer plus 1 mM magnesium chloride. The reaction was stopped with 0.5 N sodium hydroxide. […] Optical absorbency was measured at a wavelength of 405 nm.
(§3) Serum titers of antibodies against TMEV and anti-TMEV DTH reactions were measured.

UV-inactivated TMEV = experiment: TMEV delayed type hypersensitivity (ear thickness); type: in vivo, mouse; settings: immunized mice vs IFA control
Protocol: Ear thickness was measured prior to injection, and 24 and 48 hr after injection.
as §3

TMEV [4] = experiment: TMEV antigen expression (virus antigen-positive cells); type: in vivo, Theiler's murine encephalomyelitis virus; settings: 6-9 wks after high-dose immunization
[5] = Serum titres of glatiramer acetate IgG after glatiramer acetate immunization (ELISA); type: in vivo, mouse
Protocol: The antigen of interest was dissolved in 0.1 M carbonate buffer, pH 9.5, and applied at 1 μg per well in 96-well polystrene plates. Incubation was overnight at 4° C. Plates were then rinsed with PBST (phosphate buffered saline containing 0.05% Tween 20 detergent) and incubated for 1 hr in PBSM (phosphate buffered saline containing 5% defatted milk powder). Plates were rinsed with PBST, then incubated for 4 hr at room temperature with 50×PBS. Plates were rinsed with PBST, then incubated with biotinylated secondary antibodies that were raised in goat. The secondary antibodies, diluted in PBSM 1:50, were specific to mouse IgG or mouse IgM. Incubation was for 2 hr at room temperature. Plates were rinsed in PBST, then PBS. Streptavidin-alkaline phosphatase conjugate diluted in PBS was applied to the plates for 2 hr room temperature. Plates were rinsed with PBST, with a final rinse in water. The colored reaction product was produced by incubation with p-nitrophenyl phosphatase in 0.1 M carbonate buffer plus 1 mM magnesium chloride. The reaction was stopped with 0.5 N sodium hydroxide. Antibody isotyping was performed using a detection kit and purified isotype standards from Zymed Laboratories (San Francisco, Calif.). Extrapolation of the concentration of each isotype within the antibody samples was based on the sample dilution that produced the absorbence signal falling within the most linear portion of each standard isotype curve. Optical absorbency was measured at a wavelength of 405 nm.
Antibodies from normal SJL serum (SJL Ig) and commercial, pooled mouse serum (Pooled Ig) were also purifed by Protein A/G chromatography.
Mice were sacrificed on Day 65 post-immunization. […] The secondary antibody was biotinylated anti-mouse IgG.
Serum was isolated from these mice on Day 62. […] Serum was isolated from these mice on Day 41. […] Serum was isolated on Day 76. […] The secondary antibody was biotinylated anti-mouse IgG.
The final passive transfer was on Day 35. After 41 days of treatment, both groups of mice were sacrificed and serum titres of Copolymer IgG was measured by ELISA. The secondary antibody was biotinylated anti-mouse IgG.

[6] = tested on: lymph node-derived lymphocytes from MBP84-102- and PLP179-191-immunized mice; experiment: In vitro [3H]-thymidine proliferation of lymph node-derived lymphocytes from myelin peptide-immunized mice; type: cell-based, mouse; settings: Experiment 6A; 53 hours culture
Protocol: Two mice were subcutaneously injected in the flanks with MBP 84-102 in complete Fruend's adjuvant (CFA). MBP84-102 was obtained by following the procedure of Hawes et al (24). A method similar to that of Tuohy et al. was employed to produce PLP179-191 (70). PLP179-191 in CFA was subcutaneously injected into the flanks of 1 mouse. […] In the last 13 hours of culture, 1 μCi of [^3H]-thymidine was added and its incorporation measured by scintillation counting of harvested cells.
Mice were subcutaneously injected in the flanks with MBP84-102 (2 mice) peptide in CFA. After 10 days, inguinal and peri-aortic lymph nodes were removed, dissociated, and grown for 74 hours in cultures in medium alone or with additional additives as shown in FIG. 17. In the last 12 hours of culture, 1 μCi of [^3H]-thymidine was added and its incorporation measured by scintillation counting of harvested cells.

multiple sclerosis = settings: daily subcutaneous injections, 20 mg/injection; cited from earlier work
[7] = tested on: experimental autoimmune encephalomyelitis (EAE); settings: unlike MBP; cited from earlier work

L-glutamic acid polymer with L-alanine, L-lysine and L-tyrosine, acetate (salt) [glatiramer acetate]
effect on extent of demyelination ([1]; early disease, 45 days post-infection, 0.1 mg/injection, 60 days of treatment): no statistically significant effect | effect on demyelinating lesions ([1]; late disease, high dose (5 mg glatiramer acetate/IFA, 1-2 injections), vs PBS): expansion of the demyelinating lesions | white matter demyelinated (mean lesion load) ([1]; late disease, high dose of glatiramer acetate): 20% | effect on extent of demyelination ([1]; late disease, low doses (0.1 mg/injection), alone or with adjuvant): did not alter the extent of demyelination | white matter demyelinated (mean lesion load) ([1]; late disease, low-dose glatiramer acetate): 10% | remyelination of lesions (pathology) ([2]; Example 8, infected 6 months or longer, glatiramer acetate 0.1 mg/injection or antibodies 1.5 mg total): not more extensive than following the PBS treatment | effect on extent of oligodendrocyte-mediated remyelination ([2]; late disease, s.c. treatment as Experiment 2A, alone or with IFA): did not affect the extent of oligodendrocyre-mediated remyelination | anti-TMEV titers (total IgG, IgG1, IgG2a) (TMEV [3]): reduced | anti-TMEV DTH reactions (UV-inactivated TMEV): reduced | virus expression (virus antigen-positive cells) (TMEV [4]): tended to be higher | highest antibody titer reached ([5]; chronically diseased mice immunized with 5 mg): 1.2 mg/mL | dose dependence of production of antibodies against glatiramer acetate ([5]; chronically diseased mice, 0.1 vs 5 mg injections): highly dose-dependent | influence of dose (0.1-1.0 mg) and injection timing on glatiramer acetate IgG titres ([5]; non-infected immunized mice): did not significantly influence glatiramer acetate IgG titres | time required to achieve high antibody titres ([5]; non-infected immunized mice): Approximately 3 weeks | lymphocyte proliferation [6]: did not induce significant proliferation | clinical effect in multiple sclerosis (multiple sclerosis): reduce relapse rates, appearance of new lesions by magnetic resonance imaging (MRI), and progression of disability | effect on EAE [7]: inhibits rather than induces
